pIC50: −log10 of the molar value.
Test system: Plasmodium falciparum
Test: Antimalarial activity against chloroquine-sensitive Plasmodium falciparum HB3 by pico-green dye based fluorescence assay
Type: functional, organism-based

| Compound | pIC50 (Plasmodium falciparum, HB3) | pIC50 |
| --- | --- | --- |
| C/C1=C/C(=O)O[C@H](C(C)(C)C)CCC[C@H](O)CCC[C@H](O)CCC[C@H](O)CCC[C@@H](O)C[C@@H](O)C[C@H](O)CCC[C@@H](O)CCC[C@@H]2C[C@H](CCCCC1)OC(C)(C)O2 | 5.64 |  |
| C/C1=C/C(=O)O[C@H](C(C)(C)C)CCC[C@H](O)CCC[C@H](O)CCC[C@H](O)CCC[C@@H]2C[C@H](C[C@H](O)CCC[C@@H](O)CCC[C@@H](O)C[C@@H](O)CCCCC1)OC(C)(C)O2 | 4.70 |  |
| C/C1=C/C(=O)O[C@H](C(C)(C)C)CCC[C@H](O)CCC[C@H](O)CCC[C@H](O)CCC[C@@H](O)C[C@@H](O)C[C@H](O)CCC[C@@H](O)CCC[C@@H](O)C[C@@H](O)CCCCC1 [listing 1 of 2 here] | 5.59 |  |
| C/C1=C/C(=O)O[C@H](C(C)(C)C)CCC[C@H](O)CCC[C@H](O)CCC[C@H](O)CCC[C@@H](O)C[C@@H](O)C[C@H](O)CCC[C@@H](O)CCC[C@@H](O)C[C@@H](O)CCCCC1 [listing 2 of 2 here] |  | 5.85 |
| C/C1=C/C(=O)O[C@H](CCC[C@@H](O)CCC[C@@H](O)CCC[C@@H](O)CCC[C@H](O)C(C)(C)C)C[C@@H](O)C[C@H](O)CCC[C@@H](O)CCC[C@@H](O)C[C@@H](O)CCCCC1 | 5.24 |  |
| C/C1=C/C(=O)O[C@H](C(C)(C)C)CCC[C@H](O)CCC[C@H](O)CCC[C@H](O)CCC[C@@H]2C[C@H](C[C@H](O)CCC[C@@H](O)CCC[C@@H]3C[C@H](CCCCC1)OC(C)(C)O3)OC(C)(C)O2 | 5.01 |  |

Reference: ChEMBL document CHEMBL4130616, “Bastimolide B, an Antimalarial 24-Membered Marine Macrolide Possessing a tert-Butyl Group” (J Nat Prod, 2018)
